The results in this text go back to patent US20240368150A1 (Hoffmann-La Roche Inc., priority 2021, published 2024).

Read-outs that look alike come from different tables or passages of the source.

Test [1] has as its system primary human T-cells. In words: Proliferation assay after 5 days (CellTiter-Glo, CD3 stimulation; PBS counter screen). It counts as cell-based. The note with it: CD3 stimulation; for Emax: read-out: Emax proliferation (% activation); for EC50: primary human T-cells, CellTiter-Glo after 5 days, EC50 of fitted sigmoidal curve, read-out: Tcell Proliferation CD3 EC50. As to the method: Compounds are then added (see next section) to medium only plates.
Cells are assessed for proliferation 5 days later by measuring […] using CellTiterGlo (Promega).
After 5 days, for detection of ATP which is directly proportional to the number of cells present per well, the CellTiter-Glo® 2.0 Reagent is used. After visual control for toxicity or precipitations of the tested compounds, the plates are equilibrated to room temperature for 45 minutes. CellTiter-Glo® 2.0 Reagent is equilibrated to room temperature as well. After equilibration, an equal amount of CellTiter-Glo reagent is added to the cells (80 μl/well) with an electronic multichannel pipette. Plates are placed on a rocking platform for 15 minutes at room temperature. After incubation, the bottom of the plates is sealed with backing tape. Luminescence is measured with PHERAstar FSX (interval time 0.5 sec, gain 3000, focal height 15 mm) and exported as CSV file for analysis in Genedata screener.
Compounds which activate unstimulated cells (see IL2 measurements) or compounds which negatively affected viability were flagged.

Test [2] has as its system primary human T-cells.
[3] abbreviates: Homo sapiens, T-cell, 120 h, 5 days, normalized to reference compound A1 as stimulator control = 100%, DMSO neutral control.

With `CC(N)(c1nnc(-c2ccc3c(c2)N(Cc2ccc(Cl)cc2)C(=O)[C@@H](N)CS3(=O)=O)o1)C(F)(F)F` (stereo partly drawn) [Example 362, (3R)-3-amino-7-[5-(1-amino-2,2,2-trifluoro-1-methyl-ethyl)-1,3,4-oxadiazol-2-yl]-5-[(4-chlorophenyl)methyl]-1,1-dioxo-2,3-dihydro-1λ^6,5-benzothiazepin-4-one], the Emax in test [1] (setting [3]) was determined as 84%. In addition, the EC50 in test [1] (Homo sapiens, T-cell, 120 h) is 3720 nM; in test [2] it was 1730 nM.
In the case of `CC1(c2nnc(-c3cc4c(cc3F)S(=O)(=O)C[C@H](N)C(=O)N4Cc3ccc(Cl)cc3)o2)CCNCC1` [Example 161, (3R)-3-amino-5-[(4-chlorophenyl)methyl]-8-fluoro-7-[5-(4-methyl-4-piperidyl)-1,3,4-oxadiazol-2-yl]-1,1-dioxo-2,3-dihydro-1λ^6,5-benzothiazepin-4-one], the Emax in test [1] (setting [3]) is 73%. Besides, the EC50 in test [1] (Homo sapiens, T-cell, 120 h) amounted to 5480 nM; in test [2], 1150 nM.
With `CC(=O)N1CC(c2nnc(-c3cc4c(cc3F)S(=O)(=O)C[C@H](N)C(=O)N4Cc3ccc(Cl)cc3)o2)CC(F)(F)C1` (stereo partly drawn) [Example 162, (3R)-7-[5-(1-acetyl-5,5-difluoro-3-piperidyl)-1,3,4-oxadiazol-2-yl]-3-amino-5-[(4-chlorophenyl)methyl]-8-fluoro-1,1-dioxo-2,3-dihydro-1λ^6,5-benzothiazepin-4-one], the Emax in test [1] (setting [3]) came to 84%. The EC50 in test [1] (Homo sapiens, T-cell, 120 h) worked out at 628 nM; in test [2], 383 nM.
With `C#CCOCCOCCOCCCC(C)(C)c1nc(-c2cc3c(cc2F)S(=O)(=O)C[C@H](N)C(=O)N3Cc2ccc(Cl)cc2)no1` [Example 327, (3R)-3-amino-5-[(4-chlorophenyl)methyl]-7-[5-[1,1-dimethyl-4-[2-(2-prop-2-ynoxyethoxy)ethoxy]butyl]-1,2,4-oxadiazol-3-yl]-8-fluoro-1,1-dioxo-2,3-dihydro-1λ^6,5-benzothiazepin-4-one], in test [1] (setting [3]), the Emax came out at 104%. For the same compound, the EC50 came to 722 nM in test [1] (Homo sapiens, T-cell, 120 h) and 2330 nM in test [2].
On to `COC(F)(c1nnc(-c2ccc3c(c2)N(Cc2ccc(OC(F)(F)F)cc2)C(=O)[C@@H](N)C[S+]3[O-])o1)C(F)(F)F` (single isomer, unassigned; epimer b) [Example 426], for which the “Emax proliferation (% activation)” value in test [1] (5 days, normalized to reference compound A1 as stimulator control = 100%, DMSO neutral control) is listed as 109 % activation. Further, the EC50 in test [1] worked out at 1400 nM; in test [2], 1290 nM.
For the compound `N[C@H]1CS(=O)(=O)c2ccc(-c3nnc(N4CCC(F)(F)CC4)o3)cc2N(Cc2ccc(Cl)cc2)C1=O` [Example 396, (3R)-3-amino-5-[(4-chlorophenyl)methyl]-7-[5-(4,4-difluoro-1-piperidyl)-1,3,4-oxadiazol-2-yl]-1,1-dioxo-2,3-dihydro-1λ^6,5-benzothiazepin-4-one], in test [1] (setting [3]), the Emax turned out to be 87%. In addition, the EC50 in test [1] (Homo sapiens, T-cell, 120 h) was found to be 526 nM; in test [2], 937 nM.
Take `N[C@H]1CS(=O)(=O)c2cc(F)c(-c3nc(COCc4ccccc4)no3)cc2N(Cc2ccc(Cl)cc2)C1=O` [Example 45, (3R)-3-Amino-7-[3-(benzyloxymethyl)-1,2,4-oxadiazol-5-yl]-5-[(4-chlorophenyl)methyl]-8-fluoro-1,1-dioxo-2,3-dihydro-1λ^6,5-benzothiazepin-4-one]: the Emax in test [1] (setting [3]) worked out at 80%. In addition, the EC50 in test [1] (Homo sapiens, T-cell, 120 h) was 1970 nM.
As to `N[C@H]1CS(=O)(=O)c2cc(F)c(-n3cc(Cc4ccc(Cl)cc4)nn3)cc2N(Cc2ccc(Cl)cc2)C1=O` [Example 4, (3R)-3-amino-5-[(4-chlorophenyl)methyl]-7-[4-[(4-chlorophenyl)methyl]triazol-1-yl]-8-fluoro-1,1-dioxo-2,3-dihydro-1λ^6,5-benzothiazepin-4-one], the Emax in test [1] (setting [3]) was found to be 168%. The EC50 in test [1] (Homo sapiens, T-cell, 120 h) turned out to be 1050 nM.
For the compound `COC(=O)N1CCC(C)(c2nc(-c3cc4c(cc3F)S(=O)(=O)C[C@H](N)C(=O)N4Cc3ccc(Cl)cc3)no2)CC1` [Example 307, methyl 4-[3-[(3R)-3-amino-5-[(4-chlorophenyl)methyl]-8-fluoro-1,1,4-trioxo-2,3-dihydro-1λ^6,5-benzothiazepin-7-yl]-1,2,4-oxadiazol-5-yl]-4-methyl-piperidine-1-carboxylate], the Emax in test [1] (setting [3]) is 143%.
Consider `CC(C)(C)c1ncn(-c2cc3c(cc2F)S(=O)(=O)C[C@H](N)C(=O)N3Cc2ccc(Cl)cc2)n1` [Example 526, (3R)-3-amino-7-(3-tert-butyl-1,2,4-triazol-1-yl)-5-[(4-chlorophenyl)methyl]-8-fluoro-1,1-dioxo-2,3-dihydro-1λ^6,5-benzothiazepin-4-one], for which, in test [1] (setting [3]), the Emax was found to be 125%.
As to `NCc1noc(-c2cc3c(cc2F)S(=O)(=O)C[C@H](N)C(=O)N3Cc2ccc(Cl)cc2)n1` [Example 50, (3R)-3-amino-7--[3-(aminomethyl)-1,2,4-oxadiazol-5-yl]-5-[(4-chlorophenyl)methyl]-8-fluoro-1,1-dioxo-2,3-dihydro-1λ^6,5-benzothiazepin-4-one], the Emax in test [1] (setting [3]) worked out at 40%. The EC50 in test [1] (Homo sapiens, T-cell, 120 h) was above 20000 nM.
On to `N[C@H]1CS(=O)(=O)c2cc(F)c(-c3nc(Cc4ccc(Cl)cc4)no3)cc2N(Cc2ccc(Cl)cc2)C1=O` [Example 44, (3R)-3-Amino-5-[(4-chlorophenyl)methyl]-7-[3-[(4-chlorophenyl)methyl]-1,2,4-oxadiazol-5-yl]-8-fluoro-1,1-dioxo-2,3-dihydro-1λ^6,5-benzothiazepin-4-one], for which, in test [1] (setting [3]), the Emax was 122%. Moreover, the EC50 in test [1] (Homo sapiens, T-cell, 120 h) worked out at 702 nM.
In the same order, the values of `CCc1noc(-c2ccc3c(c2)N(Cc2ccc(Cl)cc2)C(=O)[C@@H](N)CS3(=O)=O)n1` [Example 51, (3R)-3-amino-5-[(4-chlorophenyl)methyl]-7-(3-ethyl-1,2,4-oxadiazol-5-yl)-1,1-dioxo-2,3-dihydro-1λ^6,5-benzothiazepin-4-one] are 94% and 2690 nM.
The like results for `N[C@H]1CSc2cc(F)c(-n3cc(Cc4ccc(Cl)cc4)nn3)cc2N(Cc2ccc(Cl)cc2)C1=O` [Example 2, (3R)-3-amino-5-[(4-chlorophenyl)methyl]-7-[4-[(4-chlorophenyl)methyl]triazol-1-yl]-8-fluoro-2,3-dihydro-1,5-benzothiazepin-4-one] were, in that order, 34% and above 20000 nM.
For the compound `CCc1cn(-c2cc3c(cc2F)SC[C@H](N)C(=O)N3Cc2ccc(Cl)cc2)nn1` [Example 1, (3R)-3-amino-5-[(4-chlorophenyl)methyl]-7-(4-ethyltriazol-1-yl)-8-fluoro-2,3-dihydro-1,5-benzothiazepin-4-one], the Emax in test [1] (setting [3]) turned out to be 33%. For the same compound, in test [1] (Homo sapiens, T-cell, 120 h), the EC50 was above 20000 nM.
Take `CCn1nnc(-c2cc3c(cc2F)S(=O)(=O)C[C@H](N)C(=O)N3Cc2ccc(Cl)cc2)n1` [Example 7, (3R)-3-amino-5-[(4-chlorophenyl)methyl]-7-(2-ethyltetrazol-5-yl)-8-fluoro-1,1-dioxo-2,3-dihydro-1λ^6,5-benzothiazepin-4-one]: in test [1] (setting [3]), the Emax amounted to 264%. Also, the EC50 in test [1] (Homo sapiens, T-cell, 120 h) worked out at 2750 nM.
With `N[C@H]1CS(=O)(=O)c2cc(F)c(-c3nnc(CCCC(F)(F)F)o3)cc2N(Cc2ccc(Cl)cc2)C1=O` [Example 79, (3R)-3-Amino-5-[(4-chlorophenyl)methyl]-8-fluoro-1,1-dioxo-7-[5-(4,4,4-trifluorobutyl)-1,3,4-oxadiazol-2-yl]-2,3-dihydro-1λ^6,5-benzothiazepin-4-one], the Emax in test [1] (setting [3]) turned out to be 154%. For the same compound, the EC50 in test [1] (Homo sapiens, T-cell, 120 h) stood at 173 nM.
Take `CC(C)(NCC(F)(F)F)c1nc(-c2cc3c(cc2F)S(=O)(=O)C[C@H](N)C(=O)N3Cc2ccc(Cl)cc2)no1` [Example 298, (3R)-3-amino-5-[(4-chlorophenyl)methyl]-8-fluoro-7-[5-[1-methyl-1-(2,2,2-trifluoroethylamino)ethyl]-1,2,4-oxadiazol-3-yl]-1,1-dioxo-2,3-dihydro-1λ^6,5-benzothiazepin-4-one]: in test [1] (setting [3]), the Emax came to 162%.
In the case of `N[C@H]1CS(=O)(=O)c2cc(F)c(-c3nc(C4CC4)no3)cc2N(Cc2ccc(Cl)cc2)C1=O` [Example 40, (3R)-3-amino-5-[(4-chlorophenyl)methyl]-7-(3-cyclopropyl-1,2,4-oxadiazol-5-yl)-8-fluoro-1,1-dioxo-2,3-dihydro-1λ^6,5-benzothiazepin-4-one], the Emax in test [1] (setting [3]) was found to be 34%. For the same compound, the EC50 in test [1] (Homo sapiens, T-cell, 120 h) is above 20000 nM.
With `CCCc1noc(-c2cc3c(cc2F)S(=O)(=O)C[C@H](N)C(=O)N3Cc2ccc(Cl)cc2)n1` [Example 42, (3R)-3-Amino-5-[(4-chlorophenyl)methyl]-8-fluoro-1,1-dioxo-7-(3-propyl-1,2,4-oxadiazol-5-yl)-2,3-dihydro-1λ^6,5-benzothiazepin-4-one], in test [1] (setting [3]), the Emax came to 80%. Also, the EC50 in test [1] (Homo sapiens, T-cell, 120 h) turned out to be 1310 nM.
As for `CCc1nc(-c2cc3c(cc2F)S(=O)(=O)C[C@H](N)C(=O)N3Cc2ccc(Cl)cc2)no1` [Example 290, (3R)-3-amino-5-[(4-chlorophenyl)methyl]-7-(5-ethyl-1,2,4-oxadiazol-3-yl)-8-fluoro-1,1-dioxo-2,3-dihydro-1λ^6,5-benzothiazepin-4-one], the Emax in test [1] (setting [3]) is 139%. Moreover, the EC50 in test [1] (Homo sapiens, T-cell, 120 h) worked out at 744 nM.
